Laboratory results taken from US9637470B2, “Treatment for substance use disorders and stress disorders” (Baylor College of Medicine, priority 2013, dated 2017).
Read-outs that look alike come from different tables or passages of the source.

Columns and labels:
rats = experiment: Irwin test for neurotoxicity in rats; type: in vivo, rat; settings: up to 90 mg/kg
CYP450 2C8 = CYP450 2C8 (Homo sapiens, UniProt P10632); experiment: CYP450 inhibition, 2C8; type: in vitro ADME
[1] = ADM&E studies: stability and protein binding; type: in vitro ADME
[2] = tested on: synaptic levels of serotonin, norepinephrine, and dopamine in rat prefrontal cortex; experiment: Synaptic monoamine levels in rat prefrontal cortex after oral treatment; type: in vivo; settings: greater effects on serotonin and norepinephrine than dopamine
[3] = molecular target: T1, norepinephrine transporter (Rattus norvegicus, UniProt Q63380); experiment: Monoamine uptake into rat synaptosomes, norepinephrine; type: biochemical
T1 construct: from tissue; host or cells: rat synaptosomes

[4] = molecular target: recombinant human serotonin transporter protein (SERT) (Homo sapiens, UniProt P31645); experiment: IC50 binding profile, competitive inhibition assay, SERT
Procedure: (§1) Amitifadine and DOV 102,677 are enantiomers and differ only in the stereochemistry of the cyclopropyl pyrrolidine carbon to which the dichlorophenyl group is bonded. In addition to the structural differences, the compounds differ greatly in their IC50 binding profiles at the three corresponding monoamine transporter proteins. The IC50 binding profiles were measured for each of the compounds in Table 5 by competitive inhibition assays using recombinant human serotonin transporter protein, recombinant human norepinephrine transporter protein, and recombinant human dopamine transporter protein Compounds were screened at a range of concentrations and were fit to a curve to determine IC50 values, the concentration at which 50% inhibition occurs.

CYP450 2C19 = CYP450 2C19 (Homo sapiens, UniProt P33261); experiment: CYP450 inhibition, 2C19; type: in vitro ADME
[5] = molecular target: recombinant human norepinephrine transporter protein (NET) (Homo sapiens, UniProt P23975); experiment: IC50 binding profile, competitive inhibition assay, NET
Procedure: as §1

CYP 1A2 = experiment: CYP induction, 1A2; type: in vitro ADME
5-HT2B [6] = molecular target: T2, 5-HT2B (Homo sapiens, UniProt P41595); experiment: Receptor binding studies, 5-HT2B; settings: at 10 uM
Source text: (§2) Binding at σ1 is not problematic, as SSRIs are known to have similar activities.

[7] = Multiple ascending dose study in healthy volunteers; type: in vivo, human; settings: human, plasma, daily doses up to 11 days, for most doses, read-out: elimination half-life during chronic treatment (converted)
Procedure: (§3) This double-blind, placebo controlled study enrolled 50 participants divided into 10 per dosing group. In each group of 10, 7 received active medication and 3 received placebo to maintain the blind. The doses tested were 25 mg BID, 75 mg QD, 50 mg BID, 75 mg BID, and 100 mg BID.

healthy volunteers = experiment: as above; type: in vivo, human; settings: multiple dose
Procedure: as §3

5-HT2B [8] = molecular target: T2, 5-HT2B; experiment: Functional activity at 5-HT2B receptor
Source text: as §2

[9] = tested on: 56 receptors, channels, and transporters; experiment: Receptor binding studies, panel of 56 receptors, channels, and transporters; settings: 10 μM; all sites except σ1 and 5-HT2B
Source text: as §2

PK parameters in mouse = settings: in vivo
[10] = tested on: alcohol preferring P rats; experiment: Binge alcohol / sucrose operant drinking in alcohol preferring P rats; type: in vivo, rat
Procedure: Animals were habituated to the gavage procedures by administering deionized water alone over a number of experimental sessions.
Animals were tested in 30 individual standard operant chambers (Coulbourn Instruments, Inc., Lehigh Valley, Pa.). The operant apparatus contained two levers, two dipper manipulanda, a cue light over each lever, and a house light. The dipper cup delivered either 10% (v/v) alcohol or 1% (w/v) sucrose reinforcers in a volume of 0.1 ml. To initiate excessive “binge” alcohol drinking, rats were adapted to a 12 h:12 h light/dark cycle which began at 4:30 pm (lights off) and lasted to 4:30 am (lights on). Rats were trained to orally self-administer EtOH for daily 30 min sessions under an FR1 schedule employing the sucrose fading technique. After a period of stabilization, the response requirement was then increased to an FR4 schedule. Responding was considered stable when responses were within ±20% of the average responses for five consecutive days, which took approximately 8 days. During the stabilization procedures, the animals were never deprived of food or fluid. Other cohorts of rats were given a 1% (w/v) concentration of sucrose and trained in an identical manner under the FR1, then FR4, schedule. […] Self-administration was assessed in 3×30 min FR4 operant sessions spaced 1 h apart during the dark cycle. […]

[11] = Chronic (13 week) toxicity testing in rats; settings: rat, in vivo, read-out: no adverse effects level (NOAEL)
CYP450 3A4 = CYP450 3A4 (Homo sapiens, UniProt P08684); experiment: CYP450 inhibition, 3A4; type: in vitro ADME
[12] = Teratogenicity study (segment II) in rats; settings: rat, in vivo
[13] = molecular target: recombinant human dopamine transporter protein (DAT) (Homo sapiens, UniProt Q01959); experiment: IC50 binding profile, competitive inhibition assay, DAT
Procedure: as §1

[14] = Metabolic stability in human liver microsomes; type: in vitro ADME
mouse lymphoma = experiment: Genotoxicity testing, mouse lymphoma chromosome aberration
CYP450 2C9 = CYP450 2C9 (Homo sapiens, UniProt P11712); experiment: CYP450 inhibition, 2C9; type: in vitro ADME
AMES = experiment: Genotoxicity testing, AMES
locomotor activity = experiment: Locomotor activity, screening test for stimulant-like effects; settings: in vivo

T2 sequence (P41595 whole entry, species assumed): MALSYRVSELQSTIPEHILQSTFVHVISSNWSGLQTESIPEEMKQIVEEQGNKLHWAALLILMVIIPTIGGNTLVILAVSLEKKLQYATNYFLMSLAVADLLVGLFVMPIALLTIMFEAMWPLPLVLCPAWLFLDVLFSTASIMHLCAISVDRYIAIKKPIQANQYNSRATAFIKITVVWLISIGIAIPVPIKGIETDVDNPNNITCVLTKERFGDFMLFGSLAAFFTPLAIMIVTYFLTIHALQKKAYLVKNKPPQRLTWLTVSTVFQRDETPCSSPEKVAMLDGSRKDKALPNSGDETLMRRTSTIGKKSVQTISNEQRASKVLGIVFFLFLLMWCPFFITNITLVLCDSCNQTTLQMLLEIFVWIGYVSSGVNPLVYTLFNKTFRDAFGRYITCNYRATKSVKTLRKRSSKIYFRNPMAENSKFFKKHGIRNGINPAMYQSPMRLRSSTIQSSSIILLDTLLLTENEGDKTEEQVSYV
Chain of CYP450 2C9 (P11712 whole entry): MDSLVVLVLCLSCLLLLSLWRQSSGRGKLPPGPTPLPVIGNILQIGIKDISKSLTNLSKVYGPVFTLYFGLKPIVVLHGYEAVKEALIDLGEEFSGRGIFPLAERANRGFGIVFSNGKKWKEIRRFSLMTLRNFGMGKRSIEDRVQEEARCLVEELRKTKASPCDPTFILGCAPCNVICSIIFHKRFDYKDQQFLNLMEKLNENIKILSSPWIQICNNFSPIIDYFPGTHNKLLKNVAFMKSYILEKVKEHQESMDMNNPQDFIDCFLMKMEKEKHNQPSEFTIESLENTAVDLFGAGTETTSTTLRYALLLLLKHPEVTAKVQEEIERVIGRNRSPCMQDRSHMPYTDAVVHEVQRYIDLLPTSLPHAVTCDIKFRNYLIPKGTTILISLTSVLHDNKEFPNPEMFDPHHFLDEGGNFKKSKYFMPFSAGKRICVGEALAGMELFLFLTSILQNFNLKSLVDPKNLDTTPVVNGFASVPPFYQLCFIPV
Chain of CYP450 2C8 (P10632 whole entry): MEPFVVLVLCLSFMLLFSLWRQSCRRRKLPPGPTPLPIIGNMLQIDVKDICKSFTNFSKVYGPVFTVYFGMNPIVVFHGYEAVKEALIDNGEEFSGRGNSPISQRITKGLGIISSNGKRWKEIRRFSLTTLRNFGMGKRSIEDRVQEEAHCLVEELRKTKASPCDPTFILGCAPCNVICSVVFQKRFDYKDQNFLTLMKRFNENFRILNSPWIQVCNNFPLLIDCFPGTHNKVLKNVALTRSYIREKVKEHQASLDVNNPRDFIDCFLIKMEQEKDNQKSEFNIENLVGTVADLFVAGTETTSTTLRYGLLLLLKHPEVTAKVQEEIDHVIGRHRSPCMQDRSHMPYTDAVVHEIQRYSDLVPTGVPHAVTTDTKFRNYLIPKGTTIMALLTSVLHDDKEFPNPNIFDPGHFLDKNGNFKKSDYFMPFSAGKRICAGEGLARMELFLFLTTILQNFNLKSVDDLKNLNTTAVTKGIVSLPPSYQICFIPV
Chain of recombinant human dopamine transporter protein (DAT) (Q01959 whole entry): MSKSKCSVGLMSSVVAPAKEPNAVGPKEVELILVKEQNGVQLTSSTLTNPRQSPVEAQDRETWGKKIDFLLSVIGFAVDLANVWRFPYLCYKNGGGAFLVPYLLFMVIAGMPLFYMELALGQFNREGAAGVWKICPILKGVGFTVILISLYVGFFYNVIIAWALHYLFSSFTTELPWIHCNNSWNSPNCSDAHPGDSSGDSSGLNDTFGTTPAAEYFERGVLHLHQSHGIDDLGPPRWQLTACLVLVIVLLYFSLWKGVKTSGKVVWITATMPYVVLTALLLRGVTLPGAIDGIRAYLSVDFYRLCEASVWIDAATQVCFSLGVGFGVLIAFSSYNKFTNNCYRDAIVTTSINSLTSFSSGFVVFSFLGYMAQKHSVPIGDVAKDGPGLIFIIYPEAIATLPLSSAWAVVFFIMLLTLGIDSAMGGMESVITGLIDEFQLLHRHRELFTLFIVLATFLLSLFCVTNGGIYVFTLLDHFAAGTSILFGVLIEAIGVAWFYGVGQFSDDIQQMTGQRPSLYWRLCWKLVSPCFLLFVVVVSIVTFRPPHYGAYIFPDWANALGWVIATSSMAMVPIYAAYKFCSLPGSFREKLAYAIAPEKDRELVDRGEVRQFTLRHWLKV
Chain of CYP450 3A4 (P08684 whole entry): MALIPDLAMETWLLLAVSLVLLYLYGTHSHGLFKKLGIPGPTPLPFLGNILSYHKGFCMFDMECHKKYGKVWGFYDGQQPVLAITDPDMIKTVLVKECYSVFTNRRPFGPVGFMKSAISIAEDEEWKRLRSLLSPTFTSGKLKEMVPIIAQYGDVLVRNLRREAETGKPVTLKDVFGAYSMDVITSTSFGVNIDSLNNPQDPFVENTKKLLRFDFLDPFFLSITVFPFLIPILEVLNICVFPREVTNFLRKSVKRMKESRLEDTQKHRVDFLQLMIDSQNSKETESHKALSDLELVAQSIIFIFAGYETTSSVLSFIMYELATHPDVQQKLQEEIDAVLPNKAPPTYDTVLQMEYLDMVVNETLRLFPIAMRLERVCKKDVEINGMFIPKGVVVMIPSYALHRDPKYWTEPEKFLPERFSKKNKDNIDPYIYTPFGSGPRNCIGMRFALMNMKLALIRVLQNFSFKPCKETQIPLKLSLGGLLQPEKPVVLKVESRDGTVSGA
Chain of recombinant human serotonin transporter protein (SERT) (P31645 whole entry): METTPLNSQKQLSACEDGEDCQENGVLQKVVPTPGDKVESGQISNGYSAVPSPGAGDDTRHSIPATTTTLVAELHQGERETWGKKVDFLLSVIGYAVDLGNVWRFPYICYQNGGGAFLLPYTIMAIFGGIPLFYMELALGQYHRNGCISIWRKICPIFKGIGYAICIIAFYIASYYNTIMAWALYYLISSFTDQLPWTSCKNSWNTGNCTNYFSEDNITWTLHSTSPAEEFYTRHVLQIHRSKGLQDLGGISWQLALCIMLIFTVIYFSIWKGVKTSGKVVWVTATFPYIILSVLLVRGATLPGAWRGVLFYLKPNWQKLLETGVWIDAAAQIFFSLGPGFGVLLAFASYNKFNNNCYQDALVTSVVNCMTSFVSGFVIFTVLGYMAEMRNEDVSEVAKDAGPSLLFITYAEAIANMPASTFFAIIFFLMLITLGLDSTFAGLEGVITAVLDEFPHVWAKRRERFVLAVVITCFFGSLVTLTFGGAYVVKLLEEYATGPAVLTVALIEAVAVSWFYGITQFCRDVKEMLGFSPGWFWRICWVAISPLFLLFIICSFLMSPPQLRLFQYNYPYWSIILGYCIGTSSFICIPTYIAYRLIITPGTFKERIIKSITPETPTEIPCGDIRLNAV
T1 sequence (Q63380 1-617): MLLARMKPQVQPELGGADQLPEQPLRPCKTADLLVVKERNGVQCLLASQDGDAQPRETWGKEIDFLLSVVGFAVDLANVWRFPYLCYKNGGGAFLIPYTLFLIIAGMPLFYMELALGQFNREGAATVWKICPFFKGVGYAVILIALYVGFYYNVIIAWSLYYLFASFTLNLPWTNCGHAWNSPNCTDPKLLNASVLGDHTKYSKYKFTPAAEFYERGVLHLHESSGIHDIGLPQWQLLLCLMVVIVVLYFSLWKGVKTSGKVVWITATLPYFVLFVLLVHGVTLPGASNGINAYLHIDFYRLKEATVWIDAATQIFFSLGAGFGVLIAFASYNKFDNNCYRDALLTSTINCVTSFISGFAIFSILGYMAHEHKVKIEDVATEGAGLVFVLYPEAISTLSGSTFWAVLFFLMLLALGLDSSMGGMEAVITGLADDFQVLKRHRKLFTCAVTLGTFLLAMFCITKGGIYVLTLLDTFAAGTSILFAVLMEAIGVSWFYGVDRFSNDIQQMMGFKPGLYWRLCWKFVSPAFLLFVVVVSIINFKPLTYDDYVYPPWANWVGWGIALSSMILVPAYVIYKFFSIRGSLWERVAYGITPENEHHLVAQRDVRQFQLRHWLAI
Chain of CYP450 2C19 (P33261 whole entry): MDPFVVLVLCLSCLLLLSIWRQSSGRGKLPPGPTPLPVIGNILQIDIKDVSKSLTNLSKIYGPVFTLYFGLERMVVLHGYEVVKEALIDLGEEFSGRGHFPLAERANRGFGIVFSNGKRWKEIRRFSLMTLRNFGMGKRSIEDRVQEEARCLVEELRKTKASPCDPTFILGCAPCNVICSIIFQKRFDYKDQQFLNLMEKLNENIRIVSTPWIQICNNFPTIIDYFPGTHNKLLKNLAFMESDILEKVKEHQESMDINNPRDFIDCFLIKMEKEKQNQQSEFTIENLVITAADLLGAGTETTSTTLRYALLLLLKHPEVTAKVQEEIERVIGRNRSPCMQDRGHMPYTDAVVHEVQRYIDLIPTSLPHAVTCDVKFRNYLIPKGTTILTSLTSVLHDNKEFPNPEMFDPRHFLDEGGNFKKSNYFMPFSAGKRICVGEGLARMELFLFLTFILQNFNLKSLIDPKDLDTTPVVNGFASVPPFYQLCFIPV
Chain of recombinant human norepinephrine transporter protein (NET) (P23975 whole entry): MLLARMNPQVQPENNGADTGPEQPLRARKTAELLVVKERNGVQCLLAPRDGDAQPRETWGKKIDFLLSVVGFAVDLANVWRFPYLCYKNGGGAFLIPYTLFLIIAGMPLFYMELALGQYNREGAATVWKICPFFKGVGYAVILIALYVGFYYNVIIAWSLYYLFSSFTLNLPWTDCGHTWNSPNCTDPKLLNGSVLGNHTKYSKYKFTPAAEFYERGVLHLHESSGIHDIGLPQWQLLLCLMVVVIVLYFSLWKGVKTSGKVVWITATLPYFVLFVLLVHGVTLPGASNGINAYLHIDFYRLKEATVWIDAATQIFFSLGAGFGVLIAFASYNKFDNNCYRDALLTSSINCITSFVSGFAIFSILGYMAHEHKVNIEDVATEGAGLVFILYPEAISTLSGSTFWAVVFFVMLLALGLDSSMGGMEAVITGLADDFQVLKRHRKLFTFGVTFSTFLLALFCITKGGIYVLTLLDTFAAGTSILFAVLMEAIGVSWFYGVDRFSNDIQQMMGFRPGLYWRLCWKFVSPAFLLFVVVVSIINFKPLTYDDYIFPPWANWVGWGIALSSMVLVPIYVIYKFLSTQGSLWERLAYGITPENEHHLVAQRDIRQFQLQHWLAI

## c1ccc2cc([C@H]([C@H]3CCCNC3)n3ncnn3)ccc2c1 [Example Compound 2, (3S)-3-[(S)-naphthalen-2-yl(2H-tetrazol-2-yl)methyl]piperidine]
rats
  Irwin test for neurotoxicity: negative
CYP450 2C8
  inhibition of CYP450 2C8: does not inhibit
[1]
  protein binding: modest
  stability: stable
[2]
  effect on synaptic levels of serotonin, norepinephrine, and dopamine: clear effects on all three monoamines
[3]
  IC50: 65 nM
[4]
  IC50: 20 nM
CYP450 2C19
  inhibition of CYP450 2C19: does not inhibit
[5]
  IC50: 10 nM
CYP 1A2
  induction of CYP 1A2: does not induce
5-HT2B [6]
  inhibition of binding at 5-HT2B: 56 % inhibition
[7]
  half-life: ~6 h
Healthy volunteers
  effects on vital signs or on QTc: no effects
  primary adverse events: nausea, vomiting and headache
Healthy volunteers; across all doses
  plasma concentration versus dose: proportional to dose
5-HT2B [8]
  activity at 5-HT2B receptor: antagonist activity
[9]
  binding at the other sites of the panel: no significant binding
PK parameters in mouse
  half-life: 1.9 h
[10]; oral 15, 30, 40, 60, or 80 mg/kg, p<0.001
  binge operant responding for alcohol: significantly reduced
[10]; oral, p>0.05, except for the 80 mg/kg dose
  binge sucrose responding: failed to significantly reduce
[11]
  NOAEL at 13 week: 60 mg/kg
CYP450 3A4
  inhibition of CYP450 3A4: does not inhibit
[12]; read-out: NOAEL fetal development
  NOAEL: 90 mg/kg/day
[12]; read-out: NOAEL fetal growth
  NOAEL: 30 mg/kg/day
[12]; read-out: NOAEL fetal viability
  NOAEL: 90 mg/kg/day
[12]; read-out: NOAEL maternal toxicity
  NOAEL: 30 mg/kg/day
[13]
  IC50: 11 nM
[14]
  metabolic stability: high
Mouse lymphoma
  genotoxicity, mouse lymphoma chromosome aberration: negative
CYP450 2C9
  inhibition of CYP450 2C9: does not inhibit
AMES
  genotoxicity, AMES: negative
Locomotor activity
  increases in locomotor activity: does not cause increases
